The source of these data is patent US8106186B2, “Transition metal phosphine complex, method for producing same, and anticancer agent containing transition metal phospine complex” (Nippon Chemical Industrial Co., Ltd., priority 2005, dated 2012).

In general, IC50 refers to the concentration that inhibits the measured activity by half.

The test system of data set [1] is Human acute myelocytic leukemia cells HL-60. Nature of the data set: Evaluation of anticancer property 1: MTT viable cell assay (modified Mosmann method). The data set is classed as cell-based. The note with it: HL-60 cells, 24 hours culture, average of assays. The method, then:
Human acute myelocytic leukemia cells cancer cells HL-60 was used as cancer cells. The cells were cultured in Rosewell Park Memorial Institute medium (RPMI 1640) supplemented with 10% fetal bovine serum, 1% antibiotic, and an antifungal agent in an atmosphere of 5% carbon dioxide in a moist incubator at 37° C.
Cells were washed with PBS. After the number of cells was determined, a suspension (1×10^6 cells/mL) was prepared with the same medium. The suspension was seeded in a sterile 96-well microplate at a density of 50,000 cells/well.
The wells were further cultured in the incubator for 24 hours.
The number of viable cells was determined by a modified Mosmann method (T. Mosmann, J. Immunnol. Method (1983)65, 55-63). […] The wells were cultured for another 3 hours under the same conditions. Formazan crystals formed by the enzyme activity of mitochondria in the cells were dissolved in 0.04 mol/HCl/isopropyl alcohol. The absorbance of each well was measured at 595 nm with a microplate reader (Bio-Rad 550). To remove the background, the absorbance of each well was measured at 630 nm. The absorbance at 630 nm was subtracted from the actual measured value. This is determined to be the number of viable cells.
(In general: Tetrazolium dyes change colour on reduction, which living cells bring about.)

In data set [2] the test system is female Sprauge-Dawley SPF rats (CrJ:CD (SD)). Put plainly: Toxicity test by single oral administration to rats. The data set is classed as in vivo, rat. The note with it: for LD50: rats, single oral dose in corn oil, observed 14 days, from survival rate. The text has this: After female Sprauge-Dawley SPF rats (CrJ:CD (SD)) were quarantined and acclimated for about a week, healthy 8-week-old rats were selected in groups of five rats.

In data set [3] the test system is COLO205 (cells derived from human colon). Nature of the data set: Evaluation of anticancer property 2: MTT assay, colon cells. The data set is classed as cell-based. The note with it: COLO205, RPMI-1640+10% FBS, assayed as in Evaluation 1; read-out: IC50, Cell derived from human colon. On the procedure: (§1) The number of viable cells was determined by a modified Mosmann method (T. Mosmann, J. Immunnol. Method (1983)65, 55-63). That is, a solution of a tetrazolium salt (3,[4,5-dimethylthiazole-2-yl]-2,5-diphenyltetrazolium bromide, MTT) was added thereto. The wells were cultured for another 3 hours under the same conditions. Formazan crystals formed by the enzyme activity of mitochondria in the cells were dissolved in 0.04 mol/HCl/isopropyl alcohol. The absorbance of each well was measured at 595 nm with a microplate reader (Bio-Rad 550). To remove the background, the absorbance of each well was measured at 630 nm. The absorbance at 630 nm was subtracted from the actual measured value. This is determined to be the number of viable cells. […] For the values shown in Table 3, each of Compounds 1 to 3 was assayed three times, and the average value was shown.
(§2) Compounds (2) and (3) obtained in Examples 2 and 3 were assayed as in Evaluation 1 with HCS-4 (cells derived from human tongue cancer, medium: RPMI 1640+10% FBS), COLO205 (cells derived from human colon, medium: RPMI-1640+10% FBS), and SH-10-TC (cells derived from human gastric cancer, medium: RPMI-1640+10% FBS).

The subject of data set [4] is SH-10-TC (cells derived from human gastric cancer). Nature of the data set: Evaluation of anticancer property 2: MTT assay, gastric cancer cells. The note with it: RPMI-1640+10% FBS, assayed as in Evaluation 1, read-out: IC50, Cell derived from human gastrict cancer. The data set is classed as cell-based. The method, then: as §1, §2
Data set [5] relates to HCS-4 (cells derived from human tongue cancer). Nature of the data set: Evaluation of anticancer property 2: MTT assay, tongue cancer cells. It counts as cell-based. Particulars: HCS-4, RPMI 1640+10% FBS, assayed as in Evaluation 1; read-out: IC50, Cell derived from human tongue cancer. On the procedure:
as §1, §2

In data set [1], “bis[1,2-bis(phenyl(2-pyridyl)phosphino)ethane]gold(I) chloride [Compound (5), reference compound]” displayed an IC50 of 3560 nM. Also, the “Death of rats, 100 mg/kg group” value in data set [2] (single oral dose 100 mg/kg, five rats, death at 5 days after administration) is listed as “one rat died”. In data set [2] (single oral dose 300 mg/kg, five rats, deaths by day 2), the “Death of rats, 300 mg/kg group” value is given as “three rats died”. Moreover, in data set [2] (single oral dose 20 and 50 mg/kg, five rats per group), the “Death of rats, 20 and 50 mg/kg groups” value is “no death was observed”.
On to “bis((R,R)-1,2-bis(tert-butyl(2-pyridyl)phosphino)ethane)gold(I) chloride [Compound (3)]”, for which the IC50 in data set [3] was found to be 1500 nM; in data set [4], 900 nM; in data set [1], 3580 nM; in data set [5], 3500 nM. Moreover, the LD50 in data set [2] is 300 mg/kg or more.
For “bis(meso-1,2-bis(tert-butyl(2-pyridyl)phosphino)ethane)gold(I) chloride [Compound (2)]”, in that order: 2200 nM, 1200 nM, 5130 nM, 1400 nM and 300 mg/kg or more.
The substance “bis(rac-1,2-bis(tert-butyl(2-pyridyl)phosphino)ethane)gold(I) chloride [Compound (1)]” gave an IC50 in data set [1] of 4510 nM. Further, in data set [2], the LD50 is 300 mg/kg or more.
